Values of other authors in US20210401895A1, “TREATMENT OF A DISEASE OF THE GASTROINTESTINAL TRACT WITH LIVE BIOTHERAPEUTICS” (Progenity, Inc., priority 2017, published 2021).

What was measured:
[1] = system: malignant or hyperactive melanocytes
[2] = system: Propionibacterium acnes and Staphylococcus epidermidis; conditions: particularly Propionibacterium acnes and Staphylococcus epidermidis
[3] = system: dermatophytes, yeasts, moulds and other fungi; conditions: broad spectrum of dermatophytes

Structure (SMILES): O=C(O)CCCCCCCC(=O)O [Azelaic acid]
- effect on malignant or hyperactive melanocytes [1]: cytotoxic effect
- effects on aerobic and anaerobic organisms [2]: antibacterial effects

Structure (SMILES): Cc1cc(C2CCCCC2)n(O)c(=O)c1 [Ciclopirox]
- activity against fungi [3]: fungicidal, fungistatic and sporicidal activity
